Source: patent publication US7183320B2, “Benzoylsulfonamides and sulfonylbenzamidines for use as antitumour agents” (Eli Lilly and Company, priority 2002, dated 2007)

System: HCT116 colon carcinoma cells
Experiment: HCT116 colon carcinoma cell growth inhibition (WST-1, 72 hr)
Type: cell-based, human
Conditions: 72 hr exposure
Procedure: HCT116 Colon Carcinoma Cell Growth Inhibition
HCT116 colon carcinoma cells were grown monolayer culture in RPMI 1640 medium supplemented with 10% fetal bovine serum and 1% penicillin-streptomycin (GibcoBRL, Grand Island, N.Y.). HCT116 cells in exponential growth phase were exposed to various concentrations of the test compounds at 37° C. for 72 hr in 5% carbon dioxide/air. After exposure to the agent, the cells were washed with 0.9% phosphate buffered saline. Growth inhibition was determined using WST-1 cell proliferation reagent as described above. The results are expressed as the growth fraction of treated cells compared with control cultures. Representative compounds of the present invention were tested for efficacy against the human colon HCT116 tumor cells.

Row | SMILES | IC50 [µM]
1 | CSc1ccc(-c2ccc(S(=O)(=O)NC(=O)c3ccc(Cl)cc3Cl)cc2)cc1 [Example 108, N-[2,4-dichlorobenzoyl]-4-(1-methylsulfanylo-phen-4-yl)phenylsulfonamide] | 16
2 | CC(=O)c1cccc(-c2ccc(S(=O)(=O)NC(=O)c3ccc(Cl)cc3Cl)cc2)c1 [Example 109, N-[2,4-dichlorobenzoyl]-4-3′-acetyl-biphenylsulfonamide] | 25.1
3 | COc1ccccc1-c1ccc(S(=O)(=O)NC(=O)c2ccc(Cl)cc2Cl)cc1 [Example 122, N-[2,4-dichlorobenzoyl]-4-(1-methoxy-phen-2-yl)phenylsulfonamide] | 25.8
4 | COC(=O)c1ccc(-c2ccc(S(=O)(=O)NC(=O)c3ccc(Cl)cc3Cl)cc2)cc1 [Example 123, N-[2,4-dichlorobenzoyl]-4-(1-methoxycarbonyl-phen-4-yl)phenylsulfonamide] | 37.7

Same assay, conditions: Homo sapiens, HCT-116, 72 hr exposure

Row | SMILES | IC50 [µM]
5 | O=C(NS(=O)(=O)c1ccc(O)cc1)c1ccc(Cl)cc1Cl [Example 82, N-[2,4-dichlorobenzoyl]-4-hydroxyphenyl-sulfonamide] | 12.4
6 | Cc1ccc(S(=O)(=O)NC(=O)c2ccc(Cl)cc2Cl)cc1 [Example 86, N-[2,4-dichlorobenzoyl]-4-methylphenylsulfonamide] | 1.6
7 | CSc1ccc(S(=O)(=O)NC(=O)c2ccc(Cl)cc2Cl)cc1 [Example 87, N-[2,4-dichlorobenzoyl]-4-methylthiophenylsulfonamide] | 5.5
8 | CC(C)(C)c1ccc(S(=O)(=O)NC(=O)c2ccc(Cl)cc2Cl)cc1 [Example 88, N-[2,4-dichlorobenzoyl]-4-tert-butylphenylsulfonamide] | 4.8
9 | Cc1ccc(S(=O)(=O)NC(=O)c2ccc(Cl)cc2Cl)cc1Cl [Example 89, N-[2,4-dichlorobenzoyl]-3-chloro-4-methylphenylsulfonamide] | 4.8
10 | O=C(NS(=O)(=O)c1ccc(Br)cc1)c1ccc(Cl)cc1Cl [Example 94, N-[2,4-dichlorobenzoyl]-4-bromophenylsulfonamide] | 3.6
11 | O=C(NS(=O)(=O)c1ccc(OC(F)(F)F)cc1)c1ccc(Cl)cc1Cl [Example 96, N-[2,4-dichlorobenzoyl]-4-trifluoromethoxyphenyl-sulfonamide] | 34.7
12 | Cc1cc(Cl)ccc1C(=O)NS(=O)(=O)c1ccc(C(C)(C)C)cc1 [Example 105, N-[2-methyl-4-chlorobenzoyl]-4-tert-butylphenylsulfonamide] | 14.8
13 | Cc1cc(Cl)ccc1C(=O)NS(=O)(=O)c1cccc(C#N)c1 [Example 106, N-[2-methyl-4-chlorobenzoyl]-3-cyanophenylsulfonamide] | 4.6
14 | O=C(NS(=O)(=O)c1ccc(Cl)cc1)c1ccc(Cl)cc1Cl [Example 111, N-[2,4-dichlorobenzoyl]-4-chlorophenylsulfonamide] | 15
15 | O=C(NS(=O)(=O)c1ccc(Cl)cc1)c1ccc(Br)cc1Cl [Example 112, N-[2-chloro-4-bromobenzoyl]-4-chlorophenylsulfonamide] | 2.8
16 | N=C(NS(=O)(=O)c1ccc(F)c(Cl)c1)c1ccc(Cl)cc1 [Example 115, N-[3-chloro-4-fluorophenylsulfonyl]-4-chlorobenzamidine] | 33.6
17 | O=C(NS(=O)(=O)c1ccc(-c2ccco2)cc1)c1ccc(Cl)cc1Cl [Example 121, N-[2,4-dichloro-benzoyl]-4-furan-2-yl-phenylsulfonamide] | 24.5
18 | O=C(NS(=O)(=O)c1ccc(-c2cccc3cccnc23)cc1)c1ccc(Cl)cc1Cl [Example 124, N-[2,4-dichlorobenzoyl]-4-quinolin-8-yl-phenylsulfonamide] | 5.6

Continued, values first:

Row | IC50 [µM] | SMILES
19 | 11.3 | O=C(NS(=O)(=O)c1ccc(C(F)(F)F)cc1)c1ccc(Cl)cc1Cl [Example 81, N-[2,4-dichlorobenzoyl]-4-trifluoromethyl-phenylsulfonamide]
20 | 4.5 | Cc1cc(Cl)ccc1C(=O)NS(=O)(=O)c1cccc(Br)c1 [Example 90, N-[2-methyl-4-chlorobenzoyl]-3-bromophenylsulfonamide]
21 | 17.4 | O=C(NS(=O)(=O)c1ccc(Cl)c(Cl)c1)c1ccc(Cl)cc1Cl [Example 92, N-[2,4-dichlorobenzoyl]-3,4-dichlorophenylsulfonamide]
22 | 18.1 | Cc1cc(Cl)ccc1C(=O)NS(=O)(=O)c1ccc(Cl)cc1 [Example 93, N-[2-methyl-4-chlorobenzoyl]-4-chlorophenylsulfonamide]
23 | 4.3 | CS(=O)(=O)Oc1ccc(S(=O)(=O)NC(=O)c2ccc(Cl)cc2Cl)cc1 [Example 95, N-[2,4-dichlorobenzoyl]-4-methylsulfonyloxyphenyl-sulfonamide]
24 | 7 | COc1c(C)cc(S(=O)(=O)NC(=O)c2ccc(Cl)cc2Cl)cc1C [Example 97, N-[2,4-dichlorobenzoyl]-4-methoxy-3,5-dimethylphenylsulfonamide]
25 | 13 | CN(C)c1ccc(S(=O)(=O)NC(=O)c2ccc(Cl)cc2Cl)cc1 [Example 98, N-[2,4-dichlorobenzoyl]-4-dimethylaminophenyl-sulfonamide]
26 | 33.5 | O=C(NS(=O)(=O)c1ccc(Cl)cc1)c1ccc(C(F)(F)F)cc1C(F)(F)F [Example 99, N-[2,4-bis-trifluoromethylbenzoyl]-4-chlorophenylsulfonamide]
27 | 9.2 | Cc1cc(Br)ccc1C(=O)NS(=O)(=O)c1ccc(Br)cc1 [Example 100, N-[2-methyl-4-bromobenzoyl]-4-bromophenylsulfonamide]
28 | 12.4 | O=C(NS(=O)(=O)c1ccc(F)cc1)c1ccc([N+](=O)[O-])cc1Cl [Example 101, N-[2-chloro-4-nitrobenzoyl]-4-fluoro-phenylsulfonamide]
29 | 6.3 | Cc1cccc(C(=O)NS(=O)(=O)c2ccc(Cl)cc2)c1Cl [Example 102, N-[2-chloro-3-methylbenzoyl]-4-chlorophenylsulfonamide]
30 | 11.9 | O=C(NS(=O)(=O)c1ccc([N+](=O)[O-])cc1)c1ccc(Cl)cc1Cl [Example 103, N-[2,4-dichlorobenzoyl]-4-nitrophenylsulfonamide]
31 | 22.2 | Cc1cc(Cl)ccc1C(=O)NS(=O)(=O)c1ccc(Cl)c(Cl)c1 [Example 104, N-[2-methyl-4-chlorobenzoyl]-3,4-dichlorophenylsulfonamide]
32 | 5.9 | N=C(NS(=O)(=O)c1ccc(F)c(Cl)c1)c1ccc(F)c(Cl)c1 [Example 116, N-[3-chloro-4-fluorophenylsulfonyl]-3-chloro-4-fluorobenzamidine]
33 | 18.5 | O=C(NS(=O)(=O)c1ccc(-c2ccoc2)cc1)c1ccc(Cl)cc1Cl [Example 126, N-[2,4-dichlorobenzoyl]-4-fur-3-yl-phenylsulfonamide]

System: not given
Experiment: not given
Conditions: not given

Row | SMILES | melting point [°C]
34 | O=C(NS(=O)(=O)c1ccc(O)cc1)c1ccc(Cl)cc1Cl [Example 117, N-[2,4-dichlorobenzoyl]-4-hydroxyphenylsulfonamide] | 155 to 157
